According to ChEMBL document CHEMBL1147930, “Selective inhibition of the interaction of C1q with immunoglobulins and the classical pathway of complement activation by steroids and triterpenoids sulfates” (Bioorg Med Chem, 2007):
Counter-ions that a name gives are not always drawn.

Legend:
[1] = Toxicity in sheep erythrocytes assessed as intrinsic hemolytic activity; type: cell-based, Ovis aries, Erythrocyte; conditions: read-out: ED50 (the source's name)
[2] = Inhibition of classical pathway of complement activation in sheep erythrocytes in presence of human serum; type: functional, cell-based, Ovis aries; conditions: erythrocyte
[3] = Inhibition of classical pathway of complement activation in sheep erythrocytes in presence of guinea-pig serum; type: functional, cell-based, Ovis aries; conditions: erythrocyte
[4] = Inhibition of alternative pathway of complement activation in rabbit erythrocytes in presence of human serum; type: functional, cell-based, Oryctolagus cuniculus; conditions: erythrocyte
[5] = Inhibition of C1q immunoglobulin interaction by ELISA; set-up: species or system Homo sapiens
[6] = Inhibition of C1q immunoglobulin interaction by hemolytic method; set-up: species or system Homo sapiens

| IC50 [3] [µM] | SMILES | HC50 [1] [µM] | IC50 [2] [µM] | IC50 [4] [µM] | Ki [5] [µM] | Ki [6] [µM] |
| --- | --- | --- | --- | --- | --- | --- |
|  | CC1(C)CC[C@]2(C(=O)O)CC[C@]3(C)C(=CCC4[C@@]5(C)CC[C@H](OS(=O)(=O)O)C(C)(C)[C@@H]5CC[C@]43C)[C@@H]2C1 (some centres not stated) [OLEANOLIC ACID SULFATE] | 15 |  |  |  |  |
| 6.8 | CC1(C)[C@@H](OS(=O)(=O)O)CC[C@]2(C)[C@H]3CC[C@@H]4[C@H]5[C@H](C6(C)CC6(Cl)Cl)CC[C@]5(COS(=O)(=O)O)CC[C@@]4(C)[C@]3(C)CC[C@@H]12 (some centres not stated) | 85 |  |  |  |  |
| 6.9 | C=C(C)[C@@H]1CC[C@]2(COS(=O)(=O)O)CC[C@]3(C)[C@H](CC[C@@H]4[C@@]5(C)CC[C@H](OS(=O)(=O)O)C(C)(C)[C@@H]5CC[C@]43C)[C@@H]12 [BETULIN DISULFATE] | 850 | 14.6 | 414 | 42.2 | 8.6 |
| 25.2 | C[C@H]1[C@H](C)CC[C@]2(C(=O)O)CC[C@]3(C)C(=CC[C@@H]4[C@@]5(C)CC[C@H](OS(=O)(=O)O)C(C)(C)[C@@H]5CC[C@]43C)[C@H]12 [URSOLIC ACID SULFATE] | > 900 |  |  |  |  |
| 101 | C[C@H](CCC(=O)O)[C@H]1CC[C@H]2[C@@H]3[C@H](OS(=O)(=O)O)C[C@@H]4C[C@H](OS(=O)(=O)O)CC[C@]4(C)[C@H]3C[C@H](OS(=O)(=O)O)[C@]12C [CHOLIC ACID TRISULFATE] | > 1400 |  |  |  |  |
| 410 | C[C@]12CC[C@H]3[C@@H](CC=C4C[C@@H](OS(=O)(=O)O)CC[C@@]43C)[C@@H]1CC[C@@H]2C(=O)O | > 1600 |  |  |  |  |
| 186 | C[C@H](CCC(=O)O)[C@H]1CC[C@H]2[C@@H]3CC[C@@H]4C[C@H](OS(=O)(=O)O)CC[C@]4(C)[C@H]3C[C@H](OS(=O)(=O)O)[C@]12C [DEOXYCHOLIC ACID DISULFATE] | > 1600 |  |  |  |  |

| SMILES | IC50 [3] [µM] | HC50 [1] [µM] | IC50 [2] [µM] | IC50 [4] [µM] | Ki [5] [µM] | Ki [6] [µM] |
| --- | --- | --- | --- | --- | --- | --- |
| C=C(C)[C@@H]1CC[C@]2(C(=O)O)CC[C@]3(C)[C@H](CC[C@@H]4[C@@]5(C)CC[C@H](OS(=O)(=O)O)C(C)(C)[C@@H]5CC[C@]43C)[C@@H]12 [BETULINIC ACID SULFATE] | 9.9 | > 900 | 53.8 | 640 | 57.3 | 14.6 |
| C[C@H](CCC(=O)O)[C@H]1CC[C@H]2[C@@H]3CC=C4C[C@@H](OS(=O)(=O)O)CC[C@]4(C)[C@H]3CC[C@]12C | 23.7 | > 400 |  |  |  |  |
| C=C(C)[C@@H]1CC[C@]2(COP(=O)(O)O)CC[C@]3(C)[C@H](CC[C@@H]4[C@@]5(C)CC[C@H](OP(=O)(O)O)C(C)(C)[C@@H]5CC[C@]43C)[C@@H]12 [BETULIN DIPHOSPHATE] | 42.6 | > 800 |  |  |  |  |
